{"source": "patent US11607417B2", "about": "“Uses of celastrol in preventing and/or treating cholestatic liver disease and liver fibrosis” (KUNMING INSTITUTE OF BOTANY, THE CHINESE ACADEMY OF SCIENCES, priority 2017, dated 2023)", "key": {"[1]": {"tested_on": "TAA-induced cholestatic liver injury", "experiment": "TAA-induced mouse cholestatic liver injury (Example 2)", "type": "in vivo, C57BL/6 mice", "method": "A total of 18 male C57BL/6 mice were divided into three groups: blank group (n=6); model group (n=6); treatment group (n=6).\nCelastrol was dissolved in a solvent to obtain a solution of celastrol at a concentration of 2 mg/mL, wherein the solvent consisted of 1% DMSO, 2% Tween, and 97% water (v:v:v). For intragastrical administration, the dosage of celastrol was 10 mg/kg·d. TAA was dissolved in 0.9% NaCl solution to prepare a NaCl solution of TAA at a concentration of […], and the dosage of TAA for intraperitoneal administration was 300 mg/kg.\nThe treatment group was administered intragastrically with the celastrol solution at a dosage of 10 mg/kg·d for 4 consecutive days. At the same time, the blank group and the model group were intragastrically administered with the same dosage of a solvent, wherein the solvent consisted of 1% DMSO, 2% Tween 80 and 97% water (v:v:v), and the solvent was administrated for 4 consecutive days.\nOn the 4th day, TAA model was established. 1 Hour after administration with the solvent or celastrol solution, the mice of the treatment group and the model group were respectively intraperitoneally injected with the NaCl solution of TAA at a dosage of 300 mg/kg to induce cholestatic liver injury. 24 Hours after treatment with TAA, the mice were sacrificed by CO2 anesthesia, and plasma samples and liver samples were collected. The eyeballs of the mice were taken for blood collection. The plasma samples were placed on ice for 1-2 hours, centrifuged at 4000 g for 5 minutes at 4° C., and the supernatant plasma samples were taken to determine the plasma biochemical indicators, the levels of ALT, AST and ALP.\nAt the same time, plasma samples were prepared: 10 μL of plasma sample was taken, mixed with 190 μL of 67% acetonitrile (containing 5 μM internal standard chlorpropamide), centrifuged at 18000 g for 20 minutes at 4° C., and the supernatant was taken for sample injection.\nLiver samples were prepared: 100 mg liver samples were mixed well with 1 mL of 50% acetonitrile (containing 5 μM internal standard chlorpropamide), shaken for 20 minutes at room temperature, and then centrifuged at 18000 g for 20 minutes at 4° C. Thereafter, 200 μL of the supernatant was taken and added with 200 μl of pure acetonitrile, vortexed for 1 minute, centrifuged at 18000 g for 20 minutes at 4° C., and the supernatant was taken for sample injection. The liquid chromatography conditions were as follows: the injection volume was 5 μL; the temperature of column was 45° C.; the flow rate of mobile phase was 0.3 mL/min; the gradient elution was that acetonitrile concentration changed from 2% to 98% during 16 minutes of operation, wherein the mobile phase (water/acetonitrile solution) contained 0.01% formic acid. The elution procedure was as follows: during 0-12th minute, the acetonitrile concentration changed from 2% to 98% at a constant rate; 12-14th minute, the acetonitrile concentration was maintained at 98%; 14-14.1th minute, the acetonitrile concentration changed from 98% to 2%; 14.1-16th minute, the acetonitrile concentration was maintained at 2%. Mass spectrometry conditions were as follows: the temperature of dry gas was 350° C., the pressure of nebulizer was 35 psi, and the voltage of capillary was 3.5 kV.\nPart of the collected mouse liver tissue was fixed overnight in formalin and tissue sections were stained with hematoxylin and eosin (H&E)."}, "[2]": {"tested_on": "ANIT-induced cholestatic liver injury in FXR knockout mice", "experiment": "Effect of FXR on celastrol activity in ANIT model (Example 5)", "type": "in vivo, FXR knockout mice (C57BL/6J as background)", "excerpt": "The same experimental method of Example 1 was used, wherein the experimental animals were FXR knockout mice (C57BL/6J as background), and the FXR knockout mice were presented by Frank J. Gonzalez, a researcher of the Cancer Institute of National Institutes of Health, USA."}, "[3]": {"tested_on": "TAA-induced cholestatic liver injury in FXR knockout mice", "experiment": "Effect of FXR on celastrol activity in TAA model (Example 6)", "type": "in vivo, FXR knockout mice (C57BL/6J as background)", "excerpt": "The same experimental method of Example 2 was used, wherein the experimental animals were FXR knockout mice (C57BL/6J as background), and the FXR knockout mice were presented by Frank J. Gonzalez, a researcher of the Cancer Institute of National Institutes of Health, USA."}, "[4]": {"conditions": "celastrol 10 mg/kg·d intragastric 4 days, TAA 300 mg/kg i.p. on day 4, 24 h after TAA, n=6"}, "[5]": {"conditions": "celastrol 10 mg/kg·d intragastric 4 days, TAA 300 mg/kg i.p., 24 h after TAA, n=6"}, "[6]": {"conditions": "method of Example 1, ANIT model, FIG. 5A"}}, "note": "“And” between values parts separate entries of the source, which are not always exact repeats. Identical values can stand only once."}
{"smiles": "CC1=C(O)C(=O)C=C2C1=CC=C1[C@@]2(C)CC[C@@]2(C)[C@@H]3C[C@](C)(C(=O)O)CC[C@]3(C)CC[C@]12C", "note": "[celastrol, Celastrol]", "values": [{"measurement": "Liver weight of mouse when sacrificed", "setting": "[1]; [4]", "value": "1.55 g and 1.55 ± 0.21 g"}, {"measurement": "Liver weight/body weight", "setting": "[1]; [4]", "value": "6.48% and 6.48 ± 0.93%"}, {"measurement": "ALP in mouse plasma", "setting": "[1]; [5]", "value": "50.1 ± 7.8", "unit": "U/l"}, {"measurement": "ALT in mouse plasma", "setting": "[1]; [5]", "value": "333.3 ± 211.3", "unit": "U/l"}, {"measurement": "AST in mouse plasma", "setting": "[1]; [5]", "value": "920.3 ± 433.4", "unit": "U/l"}, {"measurement": "H&E staining: area of liver necrosis in liver tissue", "setting": "[1]; celastrol 10 mg/kg·d intragastric, TAA model, FIG. 2C", "value": "significantly reduced"}, {"measurement": "Levels of bile acids in plasma vs TAA model group", "setting": "[1]; ω-MCA, DCA, TβMCA/TαMCA, TCA, THDCA/TUDCA, TCDCA, TDCA, celastrol 10 mg/kg·d, FIG. 2D", "value": "significantly lower"}, {"measurement": "Levels of bile acids in liver vs TAA model group", "setting": "[1]; ω-MCA, β-MCA, CA, DCA, TβMCA/TαMCA, TCA, GCA, TLCA, celastrol 10 mg/kg·d, FIG. 2E", "value": "significantly lower"}, {"measurement": "Levels of bile acids in plasma vs ANIT model group", "setting": "[2]; CA, DCA, TβMCA/TαMCA, TCA, THDCA/TUDCA, method of Example 1, FIG. 5B", "value": "no significant decrease"}, {"measurement": "ALP level in plasma vs model group", "setting": "[2]; [6]", "value": "no significant decrease"}, {"measurement": "ALT level in plasma vs model group", "setting": "[2]; [6]", "value": "no significant decrease"}, {"measurement": "Levels of bile acids in plasma vs model group", "setting": "[3]; co-MCA, DCA, TCA, THDCA/TUDCA, TCDCA, method of Example 2, FIG. 6E", "value": "no significant decrease"}, {"measurement": "H&E staining of liver tissue", "setting": "[3]; method of Example 2, TAA model, FIG. 6C", "value": "a severe necrosis of liver cells also occurred"}, {"measurement": "AST level in plasma vs model group", "setting": "[3]; method of Example 2, TAA model, FIG. 6D", "value": "no significant decrease"}]}
